Data as given in paper PMC11264232, “Are the metal identity and stoichiometry of metal complexes important for colchicine site binding and inhibition of tubulin polymerization?” (Dalton Transactions (Cambridge, England : 2003), 2024).
“And” between values parts separate entries of the source, which are not always exact repeats. Identical values can stand only once. Like-named read-outs stand apart in the source and are kept apart here. Marks after values point to notes of the source that are not given here.

How the values were obtained:
[1] = pKa by pH-potentiometric titration; assay type: physicochemical; settings: 30% (v/v) DMSO/H2O, 25.0 °C, I = 0.1 M (KCl), anoxic
Method: Therefore, the proton dissociation constants (pKa) of the proligands HL^1–HL^3 were determined under anoxic conditions by pH-potentiometric titrations (Fig. S14 in the ESI ^†). As this method requires relatively high compound concentrations (>1 mM), the measurements were performed in 30% (v/v) DMSO to achieve the required solubility. Three pKa values were determined for the proligands HL^1 and HL^2, whereas only two constants, as expected, were obtained for phenyl derivative HL^3 (Table 3). The constants obtained were assigned to the deprotonation NmorpholiniumH^+ (NmorphH^+), NhydrazineH (NhydrH) and OH moieties for HL^1 and HL^2, and to the NmorphH^+ and NhydrH for HL^3, respectively. It should be noted that we could not determine pKa values for the pyridinium group as its deprotonation in all three instances took place at fairly low pH values (pH < 2) due to the electron withdrawing effect of the protonated morpholinium moiety. The determined pKa values indicate that these compounds are in their neutral HL form at pH 7.4 and only a minor fraction (1–3%) is protonated ((HL)H^+) at the morpholinium nitrogen (Table 3).

[2] = n-octanol/water partitioning (shake-flask), log D; settings: n-octanol/buffered aqueous solution, pH 6
[3] = system: A549 human lung adenocarcinoma cells; assay: MTT viability assay, 24 h; settings: Homo sapiens, A549, 24 h, read-out: IC50 values A549
Method: (§2) We wanted to compare the cytotoxicity of proligands HL^1–HL^3 and of their Co(III) and Fe(III) complexes 1, 2 and 4, 5 on cell lines originating from the same tissue, so human lung carcinoma A549 cells and lung fibroblast MRC-5 cells were subjected to 24 h treatments.
(§3) The biological effects of selected metal complexes (1, 2, 4 and 5) and of their proligands (HL^1, HL^2 and HL^3) were tested more extensively on A549 human lung adenocarcinoma cells and on MRC-5 human lung fibroblast cells. Both cell lines were obtained from ATCC and maintained in DMEM cell culture media containing 1.0 g L^−1 glucose (Biosera, Nuaille, France) complemented with 10% fetal bovine serum (FBS), 2 mM L-glutamine, 0.01% streptomycin and 0.005% penicillin and were cultured under standard conditions in a 37 °C incubator at 5% CO2 and 95% humidity. The viability of A549 and of MRC-5 fibroblast cells upon exposure to the selected metal–ligand complexes and ligands were evaluated by the MTT assay. For this, 10 000 cells per well were seeded into 96-well plates and left to grow. On the next day the cells were exposed to 0, 5, 10, 20, 40 or 80 μM of each compound or to an equivalent volume of DMSO for 24 h. After the treatments, cells were washed with PBS and then were incubated with 0.5 mg mL^−1 MTT reagent (Sigma-Aldrich, St Louis, Missouri, USA) for 1 h at 37 °C. Finally, 100 μL of DMSO (Molar Chemicals, Halásztelek, Hungary) was added to each well, and the absorbance of samples was measured at 570 nm using a Synergy HTX plate reader (BioTek, Winooski, Vermont, USA). The viability measurements were repeated three times using 3 independent biological replicates.

[4] = system: MRC-5 human lung fibroblast cells; assay: MTT viability assay, 24 h; settings: Homo sapiens, MRC5, 24 h, read-out: IC50 values MRC-5
Method: as §2, §3

[5] = Cyclic voltammetry in DMSO/nBu4NPF6; assay type: physicochemical; settings: scan rate 100 mV s^−1
Method: Cyclic voltammetric experiments with 0.5 mM solutions of 1–3 in 0.1 M nBu4NPF6 (puriss quality from Fluka (Schwerte, Germany), dried under reduced pressure at 70 °C for 24 h before use) supporting electrolyte in DMSO (SeccoSolv max. 0.025% H2O, Merck) were performed under argon atmosphere using a three-electrode setup with a platinum disk or a glassy carbon disk working electrode (from Ionode, Australia), platinum wire as a counter electrode, and silver wire as a pseudo reference electrode. All potentials in voltammetric studies were quoted vs. ferricenium/ferrocene (Fc^+/Fc) redox couple. A Heka PG310USB (Lambrecht, Germany) potentiostat with a PotMaster 2.73 software package served for the potential control in voltammetric studies. In situ ultraviolet-visible-near-infrared (UV–Vis–NIR) spectroscopic and spectroelectrochemical measurements were performed on a spectrometer Avantes (Model AvaSpec-2048_14-USB2) in 1 cm quartz cuvette or the spectroelectrochemical cell kit ([…]3) with the Pt-microstructured honeycomb working electrode, purchased from Pine Research Instrumentation (Lyon, France). The cell was positioned in the CUV-UV Cuvette Holder (Ocean Optics, Ostfildern, Germany) connected to the diode-array UV–Vis–NIR spectrometer by optical fibres. UV–Vis–NIR spectra were processed using the AvaSoft 7.7 software package. Halogen and deuterium lamps were used as light sources (Avantes, Model AvaLight-DH-S-BAL, Apeldoorn, The Netherlands). EPR spectra were measured with a X-band cw-EPR spectrometers EMX and EMX plus (Bruker) at room temperature or 100 K. Spectroelectrochemical experiments were performed in a flat cell equipped with a Pt mesh working electrode using nBu4NPF6/DMSO electrolyte. Measurements in frozen solvent glass were done in MeCN/DMF 1 : 1 v/v. Complexes 4 and 5 were dissolved under ambient conditions, and complex 3 was reduced with a stoichiometric equivalent of cobaltocene in a N2 glovebox (N2 < 2 ppm, H2O < 1 ppm). The MeCN/DMF solutions were flash frozen in liquid N2 prior to transfer to the N2 flow cryostat precooled at 100 K inside the cavity of the EPR resonator. EPR spectra were analyzed with the Easyspin toolbox,[75] running on Matlab.

purified tubulin = assay: Inhibition of tubulin polymerization; assay type: biochemical; settings: read-out: Inhibition of tubulin polymerization IC50 ± SD
From the text: As a reference for comparison, combretastatin A-4 (CA-4) and Cu(HL^1)Cl2 were used.
(§1) The methods used for determination of the IC50 values for tubulin assembly and inhibition of [^3H]colchicine binding were as described previously.[77]

[6] = system: tubulin (colchicine site); assay: Inhibition of [3H]colchicine binding to tubulin; settings: tubulin 0.5 μM, [3H]colchicine 5 μM
From the text: as §1

| pKa ([1]; read-out: pKa (NhydrH)) | pKa ([1]; read-out: pKa (NmorphH^+)) | pKa ([1]; read-out: pKa (OH)) | logD [2] | IC50 [3] | Compound | IC50 [4] | 1st oxidation potential (peak potential Ep) [5] | 1st reduction potential (E1/2 or Ep) [5] | 2nd reduction potential (E1/2 or Ep) [5] | IC50 (purified tubulin) | Inhibition of colchicine binding, % inhibition ± SD ([6]; 5 μM inhibitor) | Inhibition of colchicine binding, % inhibition ± SD ([6]; 25 μM inhibitor) |
| --- | --- | --- | --- | --- | --- | --- | --- | --- | --- | --- | --- | --- |
| 10.44 ± 0.03 | 5.54 ± 0.03 | 12.12 ± 0.02 | 1.23 | 72.8 ± 1.22 µM | Cc1cc(NC(=S)N/N=C/c2cccc(CN3CCOCC3)n2)cc(C)c1O [HL^1, 6-morpholinomethyl-2-formylpyridine 4N-(4-hydroxy-3,5-dimethylphenyl)-3-thiosemicarbazone] | > 80 µM | – | – | – | – | – | – |
| – | – | – | – | – | Cc1cc(NC([S-])=NN=Cc2cccc(C[NH+]3CCOCC3)n2)cc(C)c1O.[Cl-].[Cl-].[Pd+2] [Complex 8, [Pd^II(HL^1)Cl]Cl] | – | 0.28 volts vs. Fc^+/Fc and 0.28^i* volts vs. Fc^+/Fc | −0.91^q volts vs. Fc^+/Fc | −1.28^q volts vs. Fc^+/Fc | 6.5 ± 1 µM | 13 ± 5% | 97 ± 1% |
| – | – | – | – | – | COc1ccc(/C=C\c2cc(OC)c(OC)c(OC)c2)cc1O [C-A4, combretastatin A-4, reference compound] | – | – | – | – | […] | 97 ± 0.5% | – |
| 10.44 ± 0.03 | 5.55 ± 0.02 | – | 2.06 | > 80 µM | S=C(N/N=C/c1cccc(CN2CCOCC2)n1)Nc1ccccc1 [HL^3, 6-morpholinomethyl-2-formylpyridine 4N-phenyl-3-thiosemicarbazone] | > 80 µM | – | – | – | – | – | – |
| – | – | – | – | – | Cc1cc(NC([S-])=NN=Cc2cccc(CN3CCOCC3)n2)cc(C)c1O.[Cl-].[Ni+2] [Complex 6, [Ni^II(L^1)]Cl] | – | 0.12 volts vs. Fc^+/Fc and 0.12^i* volts vs. Fc^+/Fc | −1.29 volts vs. Fc^+/Fc and −1.29^q volts vs. Fc^+/Fc | −1.87 volts vs. Fc^+/Fc and −1.87^q volts vs. Fc^+/Fc | > 20 µM | – | – |
| 10.41 ± 0.03 | 5.85 ± 0.04 | 12.23 ± 0.02 | 1.5 | > 80 µM | C/C(=N\NC(=S)Nc1cc(C)c(O)c(C)c1)c1cccc(CN2CCOCC2)n1 [HL^2, 6-morpholinomethyl-2-acetylpyridine 4N-(4-hydroxy-3,5-dimethylphenyl)-3-thiosemicarbazone] | > 80 µM | – | – | – | – | – | – |
